Several values for one entry are separate records, joined by “and”; a condition that tells them apart may be missing. Identical values can stand only once. Inconclusive results and toxic doses are left out. Peptide text beside a SMILES is read from it.
Tested on: P388 leukemia ip, CD2F1 mice, survival T/C
Assay: NCI In Vivo Anticancer Drug Screen. Data for tumor model P388 Leukemia (intraperitoneal) in CD2F1 (CDF1) mice
Conditions: endpoint: median survival time, higher = longer survival
In short: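 Mice carrying the transplanted tumor received test compound or vehicle. Survival was recorded in each group, and the value is the treated-group measurement divided by that of the vehicle-treated control group.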

[1] = dose: 50.0 mg/kg/injection, schedule: Q01DX005 (ip), vehicle: saline
[2] = dose: 100.0 mg/kg/injection, schedule: Q01DX005 (ip), vehicle: saline
[3] = dose: 200.0 mg/kg/injection, schedule: Q01DX005 (ip), vehicle: saline
[4] = dose: 100.0 mg/kg/injection, schedule: Q04DX003 (ip), vehicle: saline
[5] = dose: 50.0 mg/kg/injection, schedule: Q01DX005 (ip), vehicle: saline with Tween-80
[6] = dose: 100.0 mg/kg/injection, schedule: Q01DX005 (ip), vehicle: saline with Tween-80
[7] = dose: 200.0 mg/kg/injection, schedule: Q01DX005 (ip), vehicle: saline with Tween-80
[8] = dose: 50.0 mg/kg/injection, schedule: Q01DX009 (ip), vehicle: saline with Tween-80
[9] = dose: 100.0 mg/kg/injection, schedule: Q01DX009 (ip), vehicle: saline with Tween-80
[10] = dose: 200.0 mg/kg/injection, schedule: Q01DX009 (ip), vehicle: saline with Tween-80
[11] = dose: 60.0 mg/kg/injection, schedule: Q01DX005 (ip), vehicle: Klucel (hydroxypropylcellulose) (HPC)
[12] = dose: 120.0 mg/kg/injection, schedule: Q01DX005 (ip), vehicle: Klucel (hydroxypropylcellulose) (HPC)
[13] = dose: 240.0 mg/kg/injection, schedule: Q01DX005 (ip), vehicle: Klucel (hydroxypropylcellulose) (HPC)
[14] = dose: 50.0 mg/kg/injection, schedule: Q01DX009 (ip), vehicle: saline
[15] = dose: 100.0 mg/kg/injection, schedule: Q01DX009 (ip), vehicle: saline
[16] = dose: 25.0 mg/kg/injection, schedule: Q01DX009 (ip), vehicle: saline with Tween-80
[17] = dose: 50.0 mg/kg/injection, schedule: Q01DX009 (ip), vehicle: Klucel (hydroxypropylcellulose) (HPC)
[18] = dose: 100.0 mg/kg/injection, schedule: Q01DX009 (ip), vehicle: Klucel (hydroxypropylcellulose) (HPC)
[19] = dose: 200.0 mg/kg/injection, schedule: Q01DX009 (ip), vehicle: saline
[20] = dose: 12.5 mg/kg/injection, schedule: Q01DX009 (ip), vehicle: saline
[21] = dose: 25.0 mg/kg/injection, schedule: Q01DX009 (ip), vehicle: saline
[22] = dose: 25.0 mg/kg/injection, schedule: Q01DX005 (ip), vehicle: saline with Tween-80

CC(O)C(N)C(=O)NC(Cc1ccc(O)cc1)C(=O)NC(CCCCN)C(=O)O (stereo not drawn) (H-Thr-Tyr-Lys-OH; configuration not given here)
T/C [1]: 101 % of control | T/C [2]: 101 % of control | T/C [3]: 106 % of control

CC1OC(=O)C2=CCC(O)C(O)C2C1NC(=O)OCc1ccccc1 (stereo not drawn)
T/C (dose: 100.0 mg/kg/injection, schedule: Q01DX001 (ip), vehicle: saline with Tween-80): 108 % of control | T/C (dose: 200.0 mg/kg/injection, schedule: Q01DX001 (ip), vehicle: saline with Tween-80): 108 % of control | T/C (dose: 400.0 mg/kg/injection, schedule: Q01DX001 (ip), vehicle: saline with Tween-80): 101 % of control

COC(=O)c1nc(N)nc(C(=O)OC)c1C(=O)c1ccc(Cl)c(Cl)c1
T/C (dose: 60.0 mg/kg/injection, schedule: Q01DX005 (ip), vehicle: saline with Tween-80): 100 % of control | T/C (dose: 120.0 mg/kg/injection, schedule: Q01DX005 (ip), vehicle: saline with Tween-80): 94 % of control

O=C(O)c1ccc[nH]c1=O
T/C (dose: 25.0 mg/kg/injection, schedule: Q04DX003 (ip), vehicle: saline): 98 % of control | T/C (dose: 50.0 mg/kg/injection, schedule: Q04DX003 (ip), vehicle: saline): 112 % of control | T/C [4]: 99 % of control | T/C (dose: 200.0 mg/kg/injection, schedule: Q04DX003 (ip), vehicle: saline): 93 % of control

O=C1CCC(=O)Nc2ccc3nc4ccccc4c(c3c2)SCCCCCCCCCCCCSc2c3ccccc3nc3ccc(cc23)N1
T/C [5]: 110 % of control | T/C [6]: 97 % of control | T/C [7]: 107 % of control

CC(C)(C)N(O)c1ccc(P(=O)(c2ccccc2)c2ccccc2)cc1
T/C [8]: 99 % of control | T/C [9]: 99 % of control | T/C [10]: 99 % of control

O=C(S)c1ccc(Cl)c(Cl)c1
T/C [5]: 90 % of control | T/C [6]: 87 % of control | T/C [7]: 92 % of control

CC12CCC3(C)OCC(CO)(CO1)N23 (stereo not drawn)
T/C [8]: 91 % of control | T/C [9]: 90 % of control | T/C [10]: 91 % of control

Brc1ccc(/C=C/c2ccncc2)cc1
T/C [5]: 104 % of control | T/C [6]: 99 % of control | T/C [7]: 93 % of control

CCCCc1c(C)[nH]n(C(N)=NCCSCc2nc[nH]c2C)c1=O
T/C [11]: 100 % of control | T/C [12]: 99 % of control | T/C [13]: 100 % of control

CCCC(=O)Nc1ccccc1
T/C [8]: 100 % of control | T/C [9]: 100 % of control | T/C [10]: 93 % of control

CN1CCC(/C=C/c2ccccc2)CN1 (stereo not drawn) (tested in a mixture with another compound)
T/C [14]: 113 % of control | T/C [15]: 118 % of control

O=C1c2ccccc2C(=O)N1N1CC1c1ccccc1 (stereo not drawn)
T/C [5]: 106 % of control | T/C [6]: 101 % of control | T/C [7]: 97 % of control

O=C(Sc1ccc(F)cc1)N1CCN(C(=O)Sc2ccc(F)cc2)CC1
T/C (dose: 50.0 mg/kg/injection, schedule: Q01DX005 (ip), vehicle: Klucel (hydroxypropylcellulose) (HPC)): 99 % of control | T/C (dose: 100.0 mg/kg/injection, schedule: Q01DX005 (ip), vehicle: Klucel (hydroxypropylcellulose) (HPC)): 96 % of control | T/C (dose: 200.0 mg/kg/injection, schedule: Q01DX005 (ip), vehicle: Klucel (hydroxypropylcellulose) (HPC)): 100 % of control

O=C(/C(=C\c1ccc(F)cc1)S(=O)(=O)c1ccc(Br)cc1)c1ccccc1
T/C [5]: 100 % of control | T/C [6]: 97 % of control | T/C [7]: 95 % of control

O=S(Nc1ccccc1)Nc1ccccc1
T/C [16]: 100 % of control | T/C [8]: 100 % of control | T/C [9]: 90 % of control

OC(c1ccncc1)(c1ccc(Cl)cc1)c1cccs1 (stereo not drawn)
T/C [17]: 101 % of control | T/C [18]: 98 % of control | T/C (dose: 200.0 mg/kg/injection, schedule: Q01DX009 (ip), vehicle: Klucel (hydroxypropylcellulose) (HPC)): 93 % of control

[Br][Pt+2][Br].[NH-]C(c1ccccc1)C([NH-])c1ccccc1 (stereo not drawn)
T/C (dose: 12.5 mg/kg/injection, schedule: Q04DX002 (ip), vehicle: saline with Tween-80): 112 % of control

C/C=C1\CN2CC[C@H]1C[C@H]2[C@H](O)c1ccnc2ccc(NCCO)cc12
T/C [1]: 94 % of control | T/C [2]: 99 % of control | T/C [3]: 99 % of control

CC1(C)CC(=O)N(CN2CCOCC2)C(=O)C1
T/C (dose: 60.0 mg/kg/injection, schedule: Q01DX005 (ip), vehicle: saline): 100 % of control | T/C (dose: 120.0 mg/kg/injection, schedule: Q01DX005 (ip), vehicle: saline): 100 % of control | T/C (dose: 240.0 mg/kg/injection, schedule: Q01DX005 (ip), vehicle: saline): 110 % of control

O=[N+]([O-])c1cccc(C2OCC3(CO2)COC(c2cccc([N+](=O)[O-])c2)OC3)c1 (stereo not drawn)
T/C [14]: 100 % of control | T/C [15]: 100 % of control | T/C [19]: 101 % of control

O=C(CN1CCCCC1)Nc1ccc(Br)cc1
T/C [8]: 106 % of control | T/C [14]: 103 % of control and 113 % of control | T/C [9]: 100 % of control | T/C [15]: 105 % of control | T/C [10]: 111 % of control | T/C [19]: 120 % of control | T/C (dose: 400.0 mg/kg/injection, schedule: Q01DX009 (ip), vehicle: saline with Tween-80): 102 % of control

CN1CCN(CN2C(=O)C3C4C=CC(C3C2=O)C2C(=O)N(CN3CCN(C)CC3)C(=O)C42)CC1 (stereo not drawn)
T/C [20]: 108 % of control | T/C [21]: 105 % of control | T/C [14]: 108 % of control | T/C [15]: 113 % of control | T/C [19]: 122 % of control

COC1C(CO)OC(n2c3c(Cl)cccc3c3c4c(c5c6cccc(Cl)c6[nH]c5c32)C(=O)NC4=O)C(O)C1O (stereo not drawn)
T/C [22]: 155 % of control | T/C (dose: 50.0 mg/kg/injection, schedule: Q01DX005 (ip), vehicle: distilled water + Tween-80): 152 % of control | T/C [5]: 155 % of control | T/C (dose: 100.0 mg/kg/injection, schedule: Q01DX005 (ip), vehicle: distilled water + Tween-80): 158 % of control | T/C [6]: 155 % of control | T/C (dose: 200.0 mg/kg/injection, schedule: Q01DX005 (ip), vehicle: distilled water + Tween-80): 152 % of control | T/C [7]: 159 % of control | T/C (dose: 400.0 mg/kg/injection, schedule: Q01DX005 (ip), vehicle: saline with Tween-80): 182 % of control

O=C(Nc1nc2cc(Cl)ccc2o1)c1ccc(C(=O)Nc2nc3cc(Cl)ccc3o2)cc1
T/C (dose: 100.0 mg/kg/injection, schedule: Q04DX003 (ip), vehicle: saline with Tween-80): 108 % of control | T/C (dose: 200.0 mg/kg/injection, schedule: Q04DX003 (ip), vehicle: saline with Tween-80): 94 % of control | T/C (dose: 400.0 mg/kg/injection, schedule: Q04DX003 (ip), vehicle: saline with Tween-80): 99 % of control

Clc1cccc(Cl)c1NC1=NCCS1
T/C [17]: 92 % of control | T/C [18]: 101 % of control

CCOC(=O)c1cnc2c(cnn2CC)c1NN=C(C)C
T/C (dose: 66.0 mg/kg/injection, schedule: Q04DX003 (ip), vehicle: saline): 109 % of control | T/C [4]: 109 % of control | T/C (dose: 150.0 mg/kg/injection, schedule: Q04DX003 (ip), vehicle: saline): 104 % of control

Cn1c(COc2ccc(/C=N\N/C(N)=N/N=C/c3ccc(OCc4c[n+]5ccccc5n4C)cc3)cc2)c[n+]2ccccc12
T/C (dose: 12.5 mg/kg/injection, schedule: Q01DX005 (ip), vehicle: saline with Tween-80): 110 % of control | T/C [22]: 112 % of control

Cc1c2ccncc2cc2c1[nH]c1ccccc12
T/C (dose: 50.0 mg/kg/injection, schedule: Q04DX003 (ip), vehicle: saline with Tween-80): 160 % of control | T/C (dose: 66.0 mg/kg/injection, schedule: Q04DX003 (ip), vehicle: saline with Tween-80): 209 % of control

CCOC1OCN(C(C)(C)C)CC1(C)C (stereo not drawn)
T/C [16]: 104 % of control | T/C [8]: 120 % of control

CCC1(c2ccccc2)N=C1N(C)C (stereo not drawn)
T/C (dose: 6.25 mg/kg/injection, schedule: Q01DX009 (ip), vehicle: saline): 106 % of control and 92 % of control | T/C [20]: 109 % of control and 120 % of control | T/C [21]: 116 % of control and 118 % of control | T/C [19]: 93 % of control

CC(=O)Cc1nc2ccccc2[nH]c1=O
T/C (dose: 15.0 mg/kg/injection, schedule: Q01DX005 (ip), vehicle: Klucel (hydroxypropylcellulose) (HPC)): 92 % of control | T/C (dose: 30.0 mg/kg/injection, schedule: Q01DX005 (ip), vehicle: Klucel (hydroxypropylcellulose) (HPC)): 90 % of control and 96 % of control | T/C [11]: 90 % of control and 98 % of control | T/C [12]: 91 % of control | T/C [13]: 100 % of control

— PubChem BioAssay AID330 (DTP/NCI, 2004)
